Reference: ChEMBL document CHEMBL5214947, “Photoprotective effect of 18β-glycyrrhetinic acid derivatives against ultra violet (UV)-B-Induced skin aging” (Bioorg Med Chem Lett, 2022)
Calls of active or inactive are those of the source. No cut-off for these calls is given here.

Tests used:
NHDF [1] = assay: Cytotoxicity against human HDF cells assessed as reduction in cell viability at 10 uM incubated for 24 hrs by MTT assay; type: toxicity, cell-based
NHDF [2] = assay: Cytoprotective activity against UV-B irradiation induced human HDF cells assessed as increase in cell viability at 10 uM incubated for 24 hrs by MTT assay; type: functional
NHDF [3] = assay: Cytoprotective activity against UV-B irradiation induced human HDF cells assessed as increase in cell viability at 25 uM incubated for 24 hrs by MTT assay; type: functional
NHDF [4] = assay: Cytoprotective activity against human HDF cells assessed as increase in cell viability at 10 uM incubated for 24 hrs by MTT assay; type: functional
NHDF [5] = assay: Antiapoptotic activity in UV-B irradiation induced human HDF cells assessed as downregulation of MMP1 expression level at 10 to 25 uM incubated for 24 hrs by western blot analysis; type: functional, cell-based; conditions: dose 10-25 µM
NHDF [6] = assay: Antiapoptotic activity in UV-B irradiation induced human HDF cells assessed as upregulation of catalase expression level at 10 to 25 uM incubated for 24 hrs by western blot analysis; type: functional, cell-based; conditions: dose 10-25 µM
NHDF [7] = assay: Antiapoptotic activity in UV-B irradiation induced human HDF cells assessed as decrease in mitochondrial membrane potential loss at 10 to 25 uM incubated for 24 hrs by JC-9 staining fluorescence microscopy; type: functional, cell-based; conditions: dose 10-25 µM, DDE = dose-dependent effect
NHDF [8] = assay: Antiapoptotic activity in UV-B irradiation induced human HDF cells assessed as upregulation of procollagen-1 expression level at 10 to 25 uM incubated for 24 hrs by western blot analysis; type: functional, cell-based; conditions: dose 10-25 µM
NHDF [9] = assay: Antioxidant activity in UV-B irradiation induced human HDF cells assessed as decrease in ROS level at 10 to 25 uM incubated for 6 hrs by fluorescence microscopy; type: functional, cell-based; conditions: dose 10-25 µM, DDE = dose-dependent effect
NHDF [10] = assay: Antioxidant activity in UV-B irradiation induced human HDF cells assessed as decrease in ROS level at 25 uM incubated for 6 hrs by fluorescence microscopy; type: functional, cell-based
NHDF [11] = assay: Antiapoptotic activity in UV-B irradiation induced human HDF cells assessed as upregulation of catalase expression level at 50 uM incubated for 24 hrs by western blot analysis; type: functional, cell-based

Structure (SMILES) | Activity (NHDF [1]) [%] | Activity (NHDF [4]) [%] | further results
COc1ccccc1/C=C1\C[C@]2(C)[C@H]3C(=O)C=C4[C@@H]5C[C@@](C)(C(=O)O)CC[C@]5(C)CC[C@@]4(C)[C@]3(C)CC[C@H]2C(C)(C)C1=O | 5.9 | – | –
CC1(C)C(=O)/C(=C/c2ccccc2)C[C@]2(C)[C@H]3C(=O)C=C4[C@@H]5C[C@@](C)(C(=O)O)CC[C@]5(C)CC[C@@]4(C)[C@]3(C)CC[C@@H]12 | 11.5 | – | –
COc1ccc(/C=C2\C[C@]3(C)[C@H]4C(=O)C=C5[C@@H]6C[C@@](C)(C(=O)O)CC[C@]6(C)CC[C@@]5(C)[C@]4(C)CC[C@H]3C(C)(C)C2=O)c(Br)c1O | 10 | – | –
CC1(C)[C@@H](O)/C(=C/c2cccc(F)c2)C[C@]2(C)[C@H]3C(=O)C=C4[C@@H]5C[C@@](C)(C(=O)O)CC[C@]5(C)CC[C@@]4(C)[C@]3(C)CC[C@@H]12 | 4.4 | – | –
CC1(C)[C@@H](O)CC[C@]2(C)[C@H]3C(=O)C=C4[C@@H]5C[C@@](C)(C(=O)O)CC[C@]5(C)CC[C@@]4(C)[C@]3(C)CC[C@@H]12 [ENOXOLONE] | – | 106.4 | Activity (NHDF [2]): 1%; Activity (NHDF [3]): 17%
CCc1ccc(/C=C2\C[C@]3(C)[C@H]4C(=O)C=C5[C@@H]6C[C@@](C)(C(=O)O)CC[C@]6(C)CC[C@@]5(C)[C@]4(C)CC[C@H]3C(C)(C)C2=O)cc1 | 28.8 | – | –
CC1(C)C(=O)/C(=C/c2cccc3ccccc23)C[C@]2(C)[C@H]3C(=O)C=C4[C@@H]5C[C@@](C)(C(=O)O)CC[C@]5(C)CC[C@@]4(C)[C@]3(C)CC[C@@H]12 | 11.5 | – | –
Cc1ccc(/C=C2\C[C@]3(C)[C@H]4C(=O)C=C5[C@@H]6C[C@@](C)(C(=O)O)CC[C@]6(C)CC[C@@]5(C)[C@]4(C)CC[C@H]3C(C)(C)C2=O)cc1 | 30.5 | – | –
COc1ccccc1/C=C1\C[C@]2(C)[C@H]3C(=O)C=C4[C@@H]5C[C@@](C)(C(=O)O)CC[C@]5(C)CC[C@@]4(C)[C@]3(C)CC[C@H]2C(C)(C)[C@H]1O | – | 114.5 | Activity (NHDF [2]): 6%
CC1(C)C(=O)/C(=C/c2cccc(F)c2)C[C@]2(C)[C@H]3C(=O)C=C4[C@@H]5C[C@@](C)(C(=O)O)CC[C@]5(C)CC[C@@]4(C)[C@]3(C)CC[C@@H]12 | 6.5 | – | –
COc1ccc(/C=C2\C[C@]3(C)[C@H]4C(=O)C=C5[C@@H]6C[C@@](C)(C(=O)O)CC[C@]6(C)CC[C@@]5(C)[C@]4(C)CC[C@H]3C(C)(C)[C@H]2O)c(F)c1 | – | 106.7 | Activity (NHDF [5]): Active; Activity (NHDF [6]): Active; Activity (NHDF [2]): 8.3%; Activity (NHDF [3]): 19.5%; Activity (NHDF [7]): Dde; Activity (NHDF [8]): Active; Activity (NHDF [9]): Dde
CC1(C)C(=O)CC[C@]2(C)[C@H]3C(=O)C=C4[C@@H]5C[C@@](C)(C(=O)O)CC[C@]5(C)CC[C@@]4(C)[C@]3(C)CC[C@@H]12 | 5.2 | – | –
CCOc1cccc(/C=C2\C[C@]3(C)[C@H]4C(=O)C=C5[C@@H]6C[C@@](C)(C(=O)O)CC[C@]6(C)CC[C@@]5(C)[C@]4(C)CC[C@H]3C(C)(C)[C@H]2O)c1 | – | 100.1 | –
COc1cc(Br)c(/C=C2\C[C@]3(C)[C@H]4C(=O)C=C5[C@@H]6C[C@@](C)(C(=O)O)CC[C@]6(C)CC[C@@]5(C)[C@]4(C)CC[C@H]3C(C)(C)C2=O)cc1O | – | 104.7 | Activity (NHDF [2]): 3%
CCc1ccc(/C=C2\C[C@]3(C)[C@H]4C(=O)C=C5[C@@H]6C[C@@](C)(C(=O)O)CC[C@]6(C)CC[C@@]5(C)[C@]4(C)CC[C@H]3C(C)(C)[C@H]2O)cc1 | – | 114.5 | –
CC1(C)[C@@H](O)/C(=C/c2ccc(Br)cc2)C[C@]2(C)[C@H]3C(=O)C=C4[C@@H]5C[C@@](C)(C(=O)O)CC[C@]5(C)CC[C@@]4(C)[C@]3(C)CC[C@@H]12 | – | 103.5 | –
Cc1ccc(/C=C2\C[C@]3(C)[C@H]4C(=O)C=C5[C@@H]6C[C@@](C)(C(=O)O)CC[C@]6(C)CC[C@@]5(C)[C@]4(C)CC[C@H]3C(C)(C)C2=O)s1 | 12.2 | – | –

Structure (SMILES) | Activity (NHDF [1]) [%] | Activity (NHDF [4]) [%] | further results
CC1(C)C(=O)/C(=C/c2ccc(Cl)cc2)C[C@]2(C)[C@H]3C(=O)C=C4[C@@H]5C[C@@](C)(C(=O)O)CC[C@]5(C)CC[C@@]4(C)[C@]3(C)CC[C@@H]12 | – | 113.9 | –
CCOc1cccc(/C=C2\C[C@]3(C)[C@H]4C(=O)C=C5[C@@H]6C[C@@](C)(C(=O)O)CC[C@]6(C)CC[C@@]5(C)[C@]4(C)CC[C@H]3C(C)(C)C2=O)c1 | 35.7 | – | –
O=C1O[C@H]([C@@H](O)CO)C(O)=C1O | – | – | Activity (NHDF [10]): Active
CC1(C)C(=O)/C(=C/c2ccc(Br)cc2)C[C@]2(C)[C@H]3C(=O)C=C4[C@@H]5C[C@@](C)(C(=O)O)CC[C@]5(C)CC[C@@]4(C)[C@]3(C)CC[C@@H]12 | 17.5 | – | –
COc1cc(Br)c(/C=C2\C[C@]3(C)[C@H]4C(=O)C=C5[C@@H]6C[C@@](C)(C(=O)O)CC[C@]6(C)CC[C@@]5(C)[C@]4(C)CC[C@H]3C(C)(C)[C@H]2O)cc1O | 10.3 | – | –
CC1(C)[C@@H](O)/C(=C/c2ccccc2)C[C@]2(C)[C@H]3C(=O)C=C4[C@@H]5C[C@@](C)(C(=O)O)CC[C@]5(C)CC[C@@]4(C)[C@]3(C)CC[C@@H]12 | 7.4 | – | –
CC1(C)[C@@H](O)/C(=C/c2ccncc2)C[C@]2(C)[C@H]3C(=O)C=C4[C@@H]5C[C@@](C)(C(=O)O)CC[C@]5(C)CC[C@@]4(C)[C@]3(C)CC[C@@H]12 | 3.2 | – | –
COc1ccc(/C=C2\C[C@]3(C)[C@H]4C(=O)C=C5[C@@H]6C[C@@](C)(C(=O)O)CC[C@]6(C)CC[C@@]5(C)[C@]4(C)CC[C@H]3C(C)(C)[C@H]2O)cc1 | – | 112.5 | –
CSc1ccc(/C=C2\C[C@]3(C)[C@H]4C(=O)C=C5[C@@H]6C[C@@](C)(C(=O)O)CC[C@]6(C)CC[C@@]5(C)[C@]4(C)CC[C@H]3C(C)(C)C2=O)cc1 | 8.4 | – | –
CC1(C)[C@@H](O[C@H]2O[C@H](C(=O)O)[C@@H](O)[C@H](O)[C@H]2O[C@@H]2O[C@H](C(=O)O)[C@@H](O)[C@H](O)[C@H]2O)CC[C@]2(C)[C@H]3C(=O)C=C4[C@@H]5C[C@@](C)(C(=O)O)CC[C@]5(C)CC[C@@]4(C)[C@]3(C)CC[C@@H]12 | – | – | Activity (NHDF [11]): Active
CSc1ccc(/C=C2\C[C@]3(C)[C@H]4C(=O)C=C5[C@@H]6C[C@@](C)(C(=O)O)CC[C@]6(C)CC[C@@]5(C)[C@]4(C)CC[C@H]3C(C)(C)[C@H]2O)cc1 | – | 109.5 | Activity (NHDF [3]): 12%
Cc1ccc(/C=C2\C[C@]3(C)[C@H]4C(=O)C=C5[C@@H]6C[C@@](C)(C(=O)O)CC[C@]6(C)CC[C@@]5(C)[C@]4(C)CC[C@H]3C(C)(C)[C@H]2O)s1 | – | 101.1 | –
CC1(C)C(=O)/C(=C/c2ccncc2)C[C@]2(C)[C@H]3C(=O)C=C4[C@@H]5C[C@@](C)(C(=O)O)CC[C@]5(C)CC[C@@]4(C)[C@]3(C)CC[C@@H]12 | 8.3 | – | –
CC1(C)[C@@H](O)/C(=C/c2cccc3ccccc23)C[C@]2(C)[C@H]3C(=O)C=C4[C@@H]5C[C@@](C)(C(=O)O)CC[C@]5(C)CC[C@@]4(C)[C@]3(C)CC[C@@H]12 | – | 110.1 | –
COc1ccc(/C=C2\C[C@]3(C)[C@H]4C(=O)C=C5[C@@H]6C[C@@](C)(C(=O)O)CC[C@]6(C)CC[C@@]5(C)[C@]4(C)CC[C@H]3C(C)(C)[C@H]2O)c(Br)c1O | 20.2 | – | –
COc1ccc(/C=C2\C[C@]3(C)[C@H]4C(=O)C=C5[C@@H]6C[C@@](C)(C(=O)O)CC[C@]6(C)CC[C@@]5(C)[C@]4(C)CC[C@H]3C(C)(C)C2=O)cc1 | 11.5 | – | –
COc1ccc(/C=C2\C[C@]3(C)[C@H]4C(=O)C=C5[C@@H]6C[C@@](C)(C(=O)O)CC[C@]6(C)CC[C@@]5(C)[C@]4(C)CC[C@H]3C(C)(C)C2=O)c(F)c1 | 19.1 | – | –
